Source: US20240325319A1, “INHIBITORS OF AMYLOID BETA OLIGOMERIZATION AND THERAPEUTIC USES THEREOF” (Northwestern University, priority 2021, published 2024)
Entries after “also recorded” stand apart in the source; their conditions may differ.

How the values were obtained:
[1] = test system: 5×FAD mice; assay: Memory performance (novel object preference) in 5×FAD mice; type: in vivo
Method: FIG. 7. […] Preliminary results obtained in 11 month old mice treated with NU-9 for 4 weeks. Memory performance was evaluated before and after treatment with vehicle or NU-9.
In a preliminary experiment using a mouse model of Alzheimer's disease, NU-9 protected against memory loss. Twelve 5×FAD mice were bred on the slow-onset background. These animals received either vehicle control or NU-9 by gavage (20 mg/kg) daily for one month. In the control group, all animals failed the memory task, showing no preference for the novel object. […] (FIG. 7).

[2] = test system: preformed AβOs; assay: Binding of preformed AβOs to hippocampal neurons; type: cell-based, rat
Method: FIG. 11. […] Hippocampal neurons were treated with 3 μM NU-9 or vehicle for 30 min, then with Aβ monomer or preformed AβOs for 24 h. […] Neurons were stained with NU4 (anti-AβO antibody) and puncta per process were quantified.
FIG. 15. Mature hippocampal neurons were pre-treated with vehicle or 3 μM NU-9 for 30 min, then vehicle, 200 nM, or 500 nM AβO for 30 min. Then cells were fixed and labelled using anti-MAP2 (green, dendrites), DAPI (blue, nucleus), and NU2 (red, AβOs).
FIG. 19. Mature hippocampal neurons were treated first with 3 μM 9 for 30 min, and then with A) 30 or B) 200 nM LC AβOs for 30 min. Then, cells were fixed and labelled with anti-MAP2, DAPI, and NU2 (AβOs). The graphs show quantification of puncta/μm dendrite (30 images analyzed/condition, *** indicates p<0.001, ** p<0.01, * p<0.05).
If NU-9 did have some effect on preformed AβOs, this would support the alternate hypothesis that NU-9 removes AβO binding targets such as NKAα3 or PRP^c from the neuronal membrane^8-10.

[3] = test system: acidic lysosomes; assay: Lysotracker labelling of acidic compartments in hippocampal neurons; type: cell-based, rat; settings: 3 μM NU-9, 30-minute treatment
Method: FIG. 24. Mature E18 hippocampal neurons were treated 3 μM NU-9, and subsequently labelled with lysotracker. A) total immunofluorescence (integrated density), B) mean intensity, C) average size of acidic compartments, D) number of acidic compartments.

[4] = molecular target: T1, intracellular cathepsin L activity (Rattus norvegicus, UniProt P07154); assay: Intracellular cathepsin L activity in hippocampal neurons (Magic Red); type: cell-based; settings: hippocampal neurons treated with NU-9 30 minutes
T1 construct: endogenous in cells
Method: FIG. 26. A) 0.0003-150 μM NU-9 was combined with purified cathepsin L enzyme in the presence of the cathepsin L substrate Z-FR-AMC. Cathepsin L enzyme activity was measured by the rate of 7-AMC production by fluorescence. Percent change in rate was quantified in the graph. […] B) Mature hippocampal neurons were treated with NU-9 for 30 minutes, then Magic Red was used to monitor intracellular cathepsin L activity. Cells were treated in 3 wells, and 9-22 images were analyzed per condition.
No effect of 0.0003-150 μM NU-9 was observed on the cathepsin L activity as measured by the production rate of 7-AMC from Z-FR-AMC by purified cathepsin L enzyme.

[5] = molecular target: cathepsin B (Homo sapiens, UniProt P07858); assay: Purified cathepsin B enzyme activity (Z-RR-AMC to 7-AMC); type: biochemical; settings: NU-9 0.0003-30 μM
Method: FIG. 28. A) 0.0003-30 μM NU-9 was combined with purified cathepsin B enzyme in the presence of the cathepsin B substrate Z-RR-AMC. Cathepsin B enzyme activity was measured by the rate of 7-AMC production by fluorescence. Percent change in rate with NU-9 was quantified in the graph. […] B) Mature hippocampal neurons were treated with NU-9 for 30 minutes, then Magic Red was used to monitor intracellular cathepsin L activity. Cells were treated in 3 wells.

[6] = test system: AβOs; assay: Size of AβOs formed, molecular weight cutoff filters of 50 and 100 kDa; settings: 50 and 100 kDa cutoff filters; conflicting results from different blots
From the text: Another area of investigation this quarter was the effect of NU-9 on the formation of different sizes of AβOs. Evidence from animal models and human samples indicate that that some species of AβOs are more toxic than others, and specifically that higher molecular weight oligomers (>50 kDa) may include the most Aβ-relevant species^15-16. To investigate whether NU-9 reduced the formation of high-molecular weight AβOs, I carried out several experiments using molecular weight cutoff filters of 50 and 100 kDa. However, conflicting results were obtained from different blots. […] The use of sufficient bioreplicates and thorough mixing is important for these experiments. These experiments may be revisited in the future, or the question of the type of AβOs targeted could be addressed through proteomics.

T1 sequence (P07154 114-334): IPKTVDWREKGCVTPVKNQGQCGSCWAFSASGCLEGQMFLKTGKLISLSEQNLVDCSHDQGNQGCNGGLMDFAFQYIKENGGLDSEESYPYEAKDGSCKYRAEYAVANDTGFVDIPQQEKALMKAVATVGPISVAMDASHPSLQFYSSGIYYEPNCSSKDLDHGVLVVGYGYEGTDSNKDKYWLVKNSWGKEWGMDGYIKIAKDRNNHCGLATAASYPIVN

## C[C@H](Oc1cc(C(F)(F)F)cc(C(F)(F)F)c1)C1CC(=O)CC(=O)C1 [NU-9, (S)-5-(1-(3,5-bis(trifluoromethyl)phenoxy)ethyl)cyclohexane-1,3-dione]
[1]; 5×FAD mice treated with vehicle or NU-9 for 4 weeks
  motor and exploratory behavior: normal motor and exploratory behavior
[1]; 5×FAD mice, 11 month old, 20 mg/kg by gavage daily for one month, preliminary, 20 mg/kg
  protection against memory loss (preference for novel object): mitigated memory loss; also recorded: three of the four mice were protected from memory loss; also recorded: mitigates memory loss in older 5×FAD mice
[2]; 3 μM 30 min, then 30 or 200 nM LC AβOs 30 min
  binding of AβOs to hippocampal neurons (puncta/μm dendrite): no effect on the binding of the AβOs to hippocampal neurons
[2]; 3 μM NU-9 30 min, then 200 or 500 nM AβO 30 min
  binding of preformed AβOs to dendrites (puncta/μm): has no effect on the binding of preformed AβOs; also recorded: no effect on binding to dendrites
[2]; 3 μM NU-9 30 min, then preformed AβOs 24 h
  binding of preformed AβOs to neurons (NU4 puncta per process): does not reduce binding in neurons treated with premade AβOs; also recorded: does not reduce binding of preformed AβOs to neurons
[3]
  lysosome number, size, and acidity: unchanged
[4]
  intracellular cathepsin L activity: not observed to modulate intracellular cathepsin L activity
[5]
  cathepsin B activity (cleavage of Z-RR-AMC to 7-AMC): Minimal effect
[6]
  change in AβO size species: reduction in 50-100 kDa species was observed, alongside an increase in small species (<50 kDa); also recorded: reduction in most species was observed, except in small species (<50 kDa)
